Mutagenic call data for six compounds are collected here from PubChem BioAssay AID1259407 (Chemical Carcinogenesis Research Information System (CCRIS), 2018).

Molecules are shown by their SMILES. Activity calls are given as the source filed them. How the calls were made is not given here.

The series concerns CCRIS mutagenicity, Ames/micronucleus/aberration tests. Briefly: CCRIS mutagenicity studies.
[1] abbreviates: Test System: AMES SALMONELLA TYPHIMURIUM, Strain/Indicator: TA98, Metabolic Activation: HAMSTER, LIVER, S-9, AROCLOR 1254 (30%), Method: PREINCUBATION
Setting [2] is: Test System: AMES SALMONELLA TYPHIMURIUM, Strain/Indicator: TA98, Metabolic Activation: NONE, Method: PREINCUBATION
The mark [3] stands for this setting: Test System: AMES SALMONELLA TYPHIMURIUM, Strain/Indicator: TA98, Metabolic Activation: RAT, LIVER, S-9, AROCLOR 1254 (30%), Method: PREINCUBATION
Where [4] appears, read: Test System: AMES SALMONELLA TYPHIMURIUM, Strain/Indicator: TA100, Metabolic Activation: HAMSTER, LIVER, S-9, AROCLOR 1254 (30%), Method: PREINCUBATION
Where [5] appears, read: Test System: AMES SALMONELLA TYPHIMURIUM, Strain/Indicator: TA100, Metabolic Activation: NONE, Method: PREINCUBATION
[6] abbreviates: Test System: AMES SALMONELLA TYPHIMURIUM, Strain/Indicator: TA100, Metabolic Activation: RAT, LIVER, S-9, AROCLOR 1254 (30%), Method: PREINCUBATION
[7] abbreviates: Test System: AMES SALMONELLA TYPHIMURIUM, Strain/Indicator: TA1535, Metabolic Activation: NONE, Method: PREINCUBATION
Where [8] appears, read: Test System: AMES SALMONELLA TYPHIMURIUM, Strain/Indicator: TA1537, Metabolic Activation: NONE, Method: PREINCUBATION

On to `[CH3][Hg+]`, for which the mutagenic call (Test System: AMES SALMONELLA TYPHIMURIUM, Strain/Indicator: TA97, Metabolic Activation: HAMSTER, LIVER, S-9, AROCLOR 1254 (10%), Method: PREINCUBATION) was “inactive; negative”; the mutagenic call (Test System: AMES SALMONELLA TYPHIMURIUM, Strain/Indicator: TA97, Metabolic Activation: HAMSTER, LIVER, S-9, AROCLOR 1254 (30%), Method: PREINCUBATION) is “inactive; negative”; the mutagenic call (Test System: AMES SALMONELLA TYPHIMURIUM, Strain/Indicator: TA97, Metabolic Activation: NONE, Method: PREINCUBATION) is “inactive; negative”; the mutagenic call (Test System: AMES SALMONELLA TYPHIMURIUM, Strain/Indicator: TA97, Metabolic Activation: RAT, LIVER, S-9, AROCLOR 1254 (10%), Method: PREINCUBATION) was “inactive; negative”; the mutagenic call (Test System: AMES SALMONELLA TYPHIMURIUM, Strain/Indicator: TA97, Metabolic Activation: RAT, LIVER, S-9, AROCLOR 1254 (30%), Method: PREINCUBATION) was “inactive; negative”; the mutagenic call (Test System: AMES SALMONELLA TYPHIMURIUM, Strain/Indicator: TA98, Metabolic Activation: HAMSTER, LIVER, S-9, AROCLOR 1254 (10%), Method: PREINCUBATION) is “inactive; negative”. Also, the mutagenic call was “inactive; negative” under setting [1]; “inactive; negative” under setting [2]; “inactive; negative” (Test System: AMES SALMONELLA TYPHIMURIUM, Strain/Indicator: TA98, Metabolic Activation: RAT, LIVER, S-9, AROCLOR 1254 (10%), Method: PREINCUBATION); “inactive; negative” under setting [3]; “inactive; negative” (Test System: AMES SALMONELLA TYPHIMURIUM, Strain/Indicator: TA100, Metabolic Activation: HAMSTER, LIVER, S-9, AROCLOR 1254 (10%), Method: PREINCUBATION); “inactive; negative” under setting [4]. Besides, the mutagenic call is, setting by setting: under setting [5], “inactive; negative”; (Test System: AMES SALMONELLA TYPHIMURIUM, Strain/Indicator: TA100, Metabolic Activation: RAT, LIVER, S-9, AROCLOR 1254 (10%), Method: PREINCUBATION) “inactive; negative”; under setting [6], “inactive; negative”; (Test System: AMES SALMONELLA TYPHIMURIUM, Strain/Indicator: TA1535, Metabolic Activation: HAMSTER, LIVER, S-9, AROCLOR 1254 (10%), Method: PREINCUBATION) “inactive; negative”; (Test System: AMES SALMONELLA TYPHIMURIUM, Strain/Indicator: TA1535, Metabolic Activation: HAMSTER, LIVER, S-9, AROCLOR 1254 (30%), Method: PREINCUBATION) “inactive; negative”; under setting [7], “inactive; negative”. The mutagenic call (Test System: AMES SALMONELLA TYPHIMURIUM, Strain/Indicator: TA1535, Metabolic Activation: RAT, LIVER, S-9, AROCLOR 1254 (10%), Method: PREINCUBATION) is “inactive; negative”; the mutagenic call (Test System: AMES SALMONELLA TYPHIMURIUM, Strain/Indicator: TA1535, Metabolic Activation: RAT, LIVER, S-9, AROCLOR 1254 (30%), Method: PREINCUBATION) is “inactive; negative”; the mutagenic call (Test System: AMES SALMONELLA TYPHIMURIUM, Strain/Indicator: TA1537, Metabolic Activation: HAMSTER, LIVER, S-9, AROCLOR 1254 (30%), Method: PREINCUBATION) was “inactive; negative”; the mutagenic call under setting [8] is “inactive; negative”; the mutagenic call (Test System: AMES SALMONELLA TYPHIMURIUM, Strain/Indicator: TA1537, Metabolic Activation: RAT, LIVER, S-9, AROCLOR 1254 (30%), Method: PREINCUBATION) is “inactive; negative”.
Take `CCCCN(C)N=O`: the mutagenic call (Test System: AMES SALMONELLA TYPHIMURIUM, Strain/Indicator: TA100, Metabolic Activation: RAT, LIVER, S-9, KC500 OR PHENOBARBITAL, Method: LIQUID SUSPENSION) is “active; positive”.
Consider `ClC(Cl)C(Cl)(Cl)Cl`, for which the mutagenic call is “inactive; negative” (End Point: IN VITRO CHROMOSOMAL ABERRATIONS, Test System: CHINESE HAMSTER LUNG FIBROBLAST CELLS (CHL/IU), Metabolic Activation: RAT, LIVER, S-9, PHENOBARBITAL AND 5,6-BENZOFLAVONE); “inactive; negative” (End Point: IN VITRO CHROMOSOMAL ABERRATIONS, Test System: CHINESE HAMSTER OVARY CELLS, Metabolic Activation: NONE); “inactive; negative” (End Point: IN VITRO CHROMOSOMAL ABERRATIONS, Test System: CHINESE HAMSTER OVARY CELLS, Metabolic Activation: RAT, LIVER, S-9, AROCLOR 1254); “active; positive” (Test System: MOUSE LYMPHOMA, Strain/Indicator: L5178Y (TK+/TK-), Metabolic Activation: NONE, Method: MICROWELL); “inactive; negative” (Test System: MOUSE LYMPHOMA, Strain/Indicator: L5178Y (TK+/TK-), Metabolic Activation: S-9, Method: MICROWELL).
Consider `O=[N+]([O-])c1cccc2c([N+](=O)[O-])cccc12`, for which the mutagenic call by setting is: (End Point: IN VITRO CHROMOSOMAL ABERRATIONS, Test System: CHL CELLS, Metabolic Activation: RAT, LIVER, S-9, SODIUM PHENOBARBITAL AND 5,6-BENZOFLAVONE) “active; positive (structural changes)”; under setting [1], “active; positive”; under setting [2], “active; positive”; (Test System: AMES SALMONELLA TYPHIMURIUM, Strain/Indicator: TA98, Metabolic Activation: RAT LIVER S-9, PHENOBARBITAL AND BETA-NAPHTHOFLAVONE, Method: PREINCUBATION) “active; positive”; under setting [3], “active; positive”; under setting [4], “active; positive”. Also, the mutagenic call under setting [5] was “active; positive”; the mutagenic call (Test System: AMES SALMONELLA TYPHIMURIUM, Strain/Indicator: TA100, Metabolic Activation: RAT LIVER S-9, PHENOBARBITAL AND BETA-NAPHTHOFLAVONE, Method: PREINCUBATION) is “active; positive”; the mutagenic call under setting [6] is “active; positive”; the mutagenic call under setting [7] is “inactive; negative”; the mutagenic call (Test System: AMES SALMONELLA TYPHIMURIUM, Strain/Indicator: TA1535, Metabolic Activation: RAT LIVER S-9, PHENOBARBITAL AND BETA-NAPHTHOFLAVONE, Method: PREINCUBATION) was “inactive; negative”; the mutagenic call under setting [8] is “active; positive”. Further, the mutagenic call is, setting by setting: (Test System: AMES SALMONELLA TYPHIMURIUM, Strain/Indicator: TA1537, Metabolic Activation: RAT LIVER S-9, PHENOBARBITAL AND BETA-NAPHTHOFLAVONE, Method: PREINCUBATION) “active; positive”; (Test System: AMES SALMONELLA TYPHIMURIUM, Strain/Indicator: TA1538, Metabolic Activation: NONE, Method: PREINCUBATION) “active; positive”; (Test System: AMES SALMONELLA TYPHIMURIUM, Strain/Indicator: TA1538, Metabolic Activation: RAT LIVER S-9, PHENOBARBITAL AND BETA-NAPHTHOFLAVONE, Method: PREINCUBATION) “active; positive”; (Test System: E.COLI, Strain/Indicator: WP2UVRA, Metabolic Activation: NONE, Method: PREINCUBATION) “inactive; negative”; (Test System: E.COLI, Strain/Indicator: WP2UVRA, Metabolic Activation: RAT LIVER S-9, PHENOBARBITAL AND BETA-NAPHTHOFLAVONE, Method: PREINCUBATION) “active; positive”.
Turning to `CCCCOC(N)=O`, the mutagenic call (Test System: E. COLI, Strain/Indicator: WP2 UVRA, Metabolic Activation: NONE, Method: FLUCTUATION TEST) is “inactive; negative”.
As to `Cc1ccc(C)c(N=Nc2c(O)ccc3ccccc23)c1`, the mutagenic call was “inactive; negative” (Test System: AMES SALMONELLA TYPHIMURIUM, Strain/Indicator: TA98, Metabolic Activation: NONE, Method: STANDARD PLATE); “inactive; negative” (Test System: AMES SALMONELLA TYPHIMURIUM, Strain/Indicator: TA98, Metabolic Activation: RAT, LIVER, S-9, Method: STANDARD PLATE); “inactive; negative” (Test System: AMES SALMONELLA TYPHIMURIUM, Strain/Indicator: TA100, Metabolic Activation: NONE, Method: STANDARD PLATE); “inactive; negative” (Test System: AMES SALMONELLA TYPHIMURIUM, Strain/Indicator: TA100, Metabolic Activation: RAT, LIVER, S-9, Method: STANDARD PLATE).
